Data on one compound can be found in ChEMBL document CHEMBL1157109, “Differentiating and apoptotic dose-dependent effects in (-)-alpha-bisabolol-treated human endothelial cells” (2010).

The source made the active and inactive calls. The calls are words filed in the database; no cut-off is given here.

For assay [1], the system named is HUVEC. Nature of the assay: Antiangiogenic activity against HUVEC assessed as inhibition of capillary tube organization at 0.5 uM after 4 hrs. To be noted: Homo sapiens. In kind it is functional, cell-based.
In assay [2] the test system is HUVEC. Nature of the assay: Induction of apoptosis in HUVEC assessed as procaspase3 activation at 5 uM after 4 hrs by Western blot analysis. In kind it is functional, cell-based. The following applies: Homo sapiens. A general note: In western blotting, separated proteins are transferred to a membrane and probed.
In assay [3] the test system is HUVEC. Put plainly: Cytotoxicity against HUVEC at 0.5 uM after 72 hrs by trypan blue dye exclusion test relative to control. In kind it is functional, Homo sapiens.
For assay [4], the system named is HUVEC. Nature of the assay: Induction of apoptosis in HUVEC assessed as down-regulation of Bcl2 protein level at 5 uM after 0.5 hr by Western blot analysis. It is filed as functional, cell-based. To be noted: Homo sapiens.
Assay [5] concerns HUVEC. Nature of the assay: Cytotoxicity against HUVEC at 0.15 uM after 72 hrs by trypan blue dye exclusion test relative to control. It is filed as functional, Homo sapiens.
In assay [6] the test system is HUVEC. Nature of the assay: Cytotoxicity against HUVEC at 0.35 uM after 72 hrs by trypan blue dye exclusion test relative to control. In kind it is functional, Homo sapiens.
The subject of assay [7] is HUVEC. Nature of the assay: Angiogenic activity against HUVEC assessed as organization of cells in a capillary like structure at 0.1 uM after 4 hrs. It is filed as functional, cell-based. To be noted: Homo sapiens.
Assay [8] concerns HUVEC. Nature of the assay: Induction of apoptosis in HUVEC assessed as effect on bax protein level after 1 hr by Western blot analysis. The following applies: Homo sapiens. It is filed as functional, cell-based.
Assay [9] relates to HUVEC. Nature of the assay: Cytotoxicity against HUVEC at 5 uM after 6 hrs by Trypan blue dye exclusion test. In kind it is functional, Homo sapiens.
Assay [10] deals with HUVEC. Nature of the assay: Induction of apoptosis in HUVEC assessed as procaspase3 activation at 5 uM after 24 hrs by Western blot analysis. In kind it is functional, cell-based. To be noted: Homo sapiens.
Assay [11] deals with HUVEC. Nature of the assay: Induction of apoptosis in HUVEC assessed as cytochrome C release at 5 uM after 4 hrs by Western blot analysis. The following applies: Homo sapiens. It is filed as functional, cell-based.
Assay [12] concerns HUVEC. Nature of the assay: Cytotoxicity against HUVEC assessed as change in cell number at 25 uM after 72 hrs by trypan blue dye exclusion test. In kind it is functional, cell-based. To be noted: Homo sapiens.
Assay [13] deals with HUVEC. Put plainly: Induction of apoptosis in HUVEC assessed as cytochrome C release at 5 uM after 24 hrs by Western blot analysis. It is filed as functional, cell-based. The following applies: Homo sapiens.
Assay [14] deals with HUVEC. Nature of the assay: Antiangiogenic activity in HUVEC assessed as decrease in cell migration at 0.25 uM after 4 hrs in the presence of FGF2 relative to control. In kind it is functional, cell-based. To be noted: Homo sapiens.
The test system of assay [15] is HUVEC. Nature of the assay: Induction of apoptosis in HUVEC assessed as procaspase3 activation at 0.25 uM after 4 hrs by Western blot analysis. To be noted: Homo sapiens. It is filed as functional, cell-based.
Assay [16] has as its system HUVEC. Put plainly: Cytotoxicity against HUVEC at 0.25 uM after 72 hrs by trypan blue dye exclusion test relative to control. In kind it is functional, Homo sapiens.
For assay [17], the system named is HUVEC. Nature of the assay: Angiogenic activity against HUVEC assessed as organization of cells in a capillary like structure at 0.25 uM after 4 hrs. In kind it is functional, cell-based. To be noted: Homo sapiens.

Take `CC(C)=CCC[C@](C)(O)[C@@H]1CC=C(C)CC1` [LEVOMENOL]: the result in the assay on HUVEC [1], with HUVEC [2], in the assay with HUVEC [4], in the assay with HUVEC [7], in the assay with HUVEC [10] and in the assay with HUVEC [11] was Active. Besides, the result with HUVEC [13], with HUVEC [14] and in the assay with HUVEC [17] was Active. Moreover, the Activity in the assay with HUVEC [3] is 90%; with HUVEC [5], 65%; in the assay on HUVEC [6], 82%; with HUVEC [9] it was above 60%; with HUVEC [16] it was 78%. In addition, the outcome with HUVEC [8], in the assay with HUVEC [12] and with HUVEC [15] was inactive.
